# From ChEMBL document CHEMBL5465560, “Selectivity Literature for EUbOPEN Chemogenomic Library” (2024)
# Key:
# [1] = molecular target: Vascular endothelial growth factor receptor 1 (Homo sapiens) (UniProt P17948); test: Selectivity interaction (Kinase panel (DSF assay)) EUB0001559a FLT1
# [2] = molecular target: Protein kinase C eta type (Homo sapiens) (UniProt P24723); test: Selectivity interaction (KinomeScan (DiscoverX)) EUB0000666a PRKCH; settings: at 10 µM
# [3] = molecular target: T1, Histone-lysine N-methyltransferase EHMT2 (Homo sapiens) (UniProt Q96KQ7); test: Selectivity interaction (Transferase panel (protein, RNA, and DNA methyltransferases. and EP300 (acetyltransferase))) EUB0000270b EHMT2
# T1 sequence (whole entry): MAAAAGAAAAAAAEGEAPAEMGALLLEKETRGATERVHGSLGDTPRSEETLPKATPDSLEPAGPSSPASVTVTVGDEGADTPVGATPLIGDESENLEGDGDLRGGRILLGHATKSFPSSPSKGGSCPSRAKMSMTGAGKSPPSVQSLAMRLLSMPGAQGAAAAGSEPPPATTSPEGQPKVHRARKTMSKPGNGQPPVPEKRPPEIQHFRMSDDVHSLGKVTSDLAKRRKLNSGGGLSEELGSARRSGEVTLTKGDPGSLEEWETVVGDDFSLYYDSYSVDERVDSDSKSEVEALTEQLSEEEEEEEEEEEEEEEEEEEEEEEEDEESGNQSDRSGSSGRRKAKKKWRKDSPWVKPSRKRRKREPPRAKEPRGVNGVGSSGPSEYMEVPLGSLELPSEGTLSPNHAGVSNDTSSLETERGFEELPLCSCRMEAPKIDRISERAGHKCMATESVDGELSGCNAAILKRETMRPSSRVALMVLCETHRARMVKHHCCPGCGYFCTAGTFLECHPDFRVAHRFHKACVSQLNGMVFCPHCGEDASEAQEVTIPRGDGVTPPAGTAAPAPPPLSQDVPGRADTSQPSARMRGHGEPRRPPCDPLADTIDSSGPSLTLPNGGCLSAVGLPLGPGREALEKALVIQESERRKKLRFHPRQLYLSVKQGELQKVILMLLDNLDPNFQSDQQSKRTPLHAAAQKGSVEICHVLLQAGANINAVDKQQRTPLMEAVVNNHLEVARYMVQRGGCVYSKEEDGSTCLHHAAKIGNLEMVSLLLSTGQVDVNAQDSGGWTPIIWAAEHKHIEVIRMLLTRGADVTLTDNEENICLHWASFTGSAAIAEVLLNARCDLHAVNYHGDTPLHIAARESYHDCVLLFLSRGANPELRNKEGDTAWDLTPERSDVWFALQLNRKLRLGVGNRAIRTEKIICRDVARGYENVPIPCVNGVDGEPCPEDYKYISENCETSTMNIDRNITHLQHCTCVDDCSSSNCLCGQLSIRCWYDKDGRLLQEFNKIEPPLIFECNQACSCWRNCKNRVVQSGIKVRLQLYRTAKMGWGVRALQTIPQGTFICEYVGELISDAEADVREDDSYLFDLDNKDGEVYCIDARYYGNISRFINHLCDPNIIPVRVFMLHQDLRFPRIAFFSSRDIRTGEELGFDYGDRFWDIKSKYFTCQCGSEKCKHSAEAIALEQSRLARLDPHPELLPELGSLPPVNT
# [4] = molecular target: Ephrin type-A receptor 5 (Homo sapiens) (UniProt P54756); settings: at 10 µM
# [5] = molecular target: Myosin light chain kinase family member 4 (Homo sapiens, UniProt Q86YV6); test: Selectivity interaction (NanoBRET assay (HEK293T cells)) EUB0001550a MYLK4; type: cell-based, HEK-293T
# [6] = molecular target: Protein-tyrosine kinase 6 (Homo sapiens, UniProt Q13882); test: Selectivity interaction (KinaseProfiler screening (Millipore)) EUB0000601a PTK6; settings: at 3 µM
# Sequence of Protein-tyrosine kinase 6 (Q13882 whole entry, looked up): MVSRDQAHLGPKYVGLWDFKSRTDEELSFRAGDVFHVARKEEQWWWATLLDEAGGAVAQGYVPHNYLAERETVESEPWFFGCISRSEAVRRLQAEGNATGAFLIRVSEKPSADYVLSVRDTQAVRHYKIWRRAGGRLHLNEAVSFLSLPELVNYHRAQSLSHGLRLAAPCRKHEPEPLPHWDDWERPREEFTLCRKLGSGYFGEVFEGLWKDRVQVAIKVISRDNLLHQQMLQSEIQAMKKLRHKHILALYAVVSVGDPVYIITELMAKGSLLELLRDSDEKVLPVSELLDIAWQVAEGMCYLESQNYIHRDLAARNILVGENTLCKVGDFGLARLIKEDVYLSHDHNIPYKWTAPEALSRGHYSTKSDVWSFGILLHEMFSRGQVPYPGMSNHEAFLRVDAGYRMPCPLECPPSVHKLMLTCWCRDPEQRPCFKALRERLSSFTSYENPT
# [7] = molecular target: Mitogen-activated protein kinase kinase kinase kinase 4 (Homo sapiens, UniProt O95819); test: Selectivity interaction (Kinase panel (literature)) EUB0001199aCl MAP4K4; settings: at 1 µM
# Sequence of Mitogen-activated protein kinase kinase kinase kinase 4 (O95819 2-1239 limits assumed): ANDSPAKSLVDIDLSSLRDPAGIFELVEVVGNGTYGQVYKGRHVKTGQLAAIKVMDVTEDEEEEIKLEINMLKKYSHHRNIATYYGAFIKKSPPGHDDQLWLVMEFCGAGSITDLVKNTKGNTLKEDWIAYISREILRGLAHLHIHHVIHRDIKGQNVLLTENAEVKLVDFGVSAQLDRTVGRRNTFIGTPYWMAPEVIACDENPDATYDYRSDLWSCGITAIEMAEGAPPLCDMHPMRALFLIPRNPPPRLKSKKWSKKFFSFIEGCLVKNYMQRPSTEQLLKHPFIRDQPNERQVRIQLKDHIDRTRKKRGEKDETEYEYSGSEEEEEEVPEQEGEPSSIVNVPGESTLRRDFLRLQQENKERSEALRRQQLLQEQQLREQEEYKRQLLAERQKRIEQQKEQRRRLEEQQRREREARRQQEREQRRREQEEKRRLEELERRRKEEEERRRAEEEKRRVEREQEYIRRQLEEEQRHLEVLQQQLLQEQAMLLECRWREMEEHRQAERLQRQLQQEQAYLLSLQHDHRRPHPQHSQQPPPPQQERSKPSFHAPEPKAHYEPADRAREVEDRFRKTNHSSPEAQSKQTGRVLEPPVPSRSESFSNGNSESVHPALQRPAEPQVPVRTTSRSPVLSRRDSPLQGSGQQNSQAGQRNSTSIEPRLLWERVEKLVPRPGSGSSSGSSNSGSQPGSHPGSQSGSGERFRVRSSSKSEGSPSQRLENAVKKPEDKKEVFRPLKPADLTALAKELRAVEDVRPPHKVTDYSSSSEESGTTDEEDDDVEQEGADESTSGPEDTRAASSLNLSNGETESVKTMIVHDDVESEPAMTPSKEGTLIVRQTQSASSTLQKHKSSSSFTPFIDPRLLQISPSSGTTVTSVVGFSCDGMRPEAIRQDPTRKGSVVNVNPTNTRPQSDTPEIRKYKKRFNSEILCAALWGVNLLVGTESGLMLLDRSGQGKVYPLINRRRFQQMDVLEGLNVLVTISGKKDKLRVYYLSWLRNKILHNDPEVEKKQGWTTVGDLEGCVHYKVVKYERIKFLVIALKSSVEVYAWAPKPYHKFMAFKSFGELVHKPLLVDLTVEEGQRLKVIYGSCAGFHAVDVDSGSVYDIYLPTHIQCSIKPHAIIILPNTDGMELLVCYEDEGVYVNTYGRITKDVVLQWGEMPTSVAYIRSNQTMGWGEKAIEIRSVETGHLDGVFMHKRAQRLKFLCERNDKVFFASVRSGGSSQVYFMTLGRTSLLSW
# [8] = molecular target: Serine/threonine-protein kinase SIK1 (Homo sapiens) (UniProt P57059); test: Selectivity interaction (KinomeScan (DiscoverX)) EUB0000618a SIK1; settings: at 10 µM
# Sequence of Serine/threonine-protein kinase SIK1 (Homo sapiens) (P57059 whole entry): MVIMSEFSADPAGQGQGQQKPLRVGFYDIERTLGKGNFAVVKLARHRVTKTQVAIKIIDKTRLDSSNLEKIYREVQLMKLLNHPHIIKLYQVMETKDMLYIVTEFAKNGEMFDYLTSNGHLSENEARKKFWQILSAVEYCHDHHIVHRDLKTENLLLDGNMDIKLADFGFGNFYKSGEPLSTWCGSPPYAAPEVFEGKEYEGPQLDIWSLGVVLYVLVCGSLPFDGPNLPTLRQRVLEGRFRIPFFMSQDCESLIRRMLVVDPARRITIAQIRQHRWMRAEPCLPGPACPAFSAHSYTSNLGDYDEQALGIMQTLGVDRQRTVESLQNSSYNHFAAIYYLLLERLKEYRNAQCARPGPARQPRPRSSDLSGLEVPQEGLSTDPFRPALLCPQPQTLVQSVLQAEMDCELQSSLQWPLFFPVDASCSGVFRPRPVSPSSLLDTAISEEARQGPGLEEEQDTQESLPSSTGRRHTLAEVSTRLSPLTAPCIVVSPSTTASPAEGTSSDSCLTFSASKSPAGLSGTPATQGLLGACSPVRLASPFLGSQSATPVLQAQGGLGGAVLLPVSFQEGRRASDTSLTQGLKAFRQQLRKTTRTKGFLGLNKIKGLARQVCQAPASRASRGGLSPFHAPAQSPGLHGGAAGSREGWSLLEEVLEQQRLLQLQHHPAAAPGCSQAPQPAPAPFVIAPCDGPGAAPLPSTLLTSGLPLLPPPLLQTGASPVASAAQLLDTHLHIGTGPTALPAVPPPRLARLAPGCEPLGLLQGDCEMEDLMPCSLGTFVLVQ
# [9] = molecular target: Cyclin-dependent kinase 13 (Homo sapiens, UniProt Q14004); test: Selectivity interaction (KinomeScan (DiscoverX)) EUB0000618a CDK13; settings: at 10 µM
# Sequence of Cyclin-dependent kinase 13 (Q14004 whole entry, looked up): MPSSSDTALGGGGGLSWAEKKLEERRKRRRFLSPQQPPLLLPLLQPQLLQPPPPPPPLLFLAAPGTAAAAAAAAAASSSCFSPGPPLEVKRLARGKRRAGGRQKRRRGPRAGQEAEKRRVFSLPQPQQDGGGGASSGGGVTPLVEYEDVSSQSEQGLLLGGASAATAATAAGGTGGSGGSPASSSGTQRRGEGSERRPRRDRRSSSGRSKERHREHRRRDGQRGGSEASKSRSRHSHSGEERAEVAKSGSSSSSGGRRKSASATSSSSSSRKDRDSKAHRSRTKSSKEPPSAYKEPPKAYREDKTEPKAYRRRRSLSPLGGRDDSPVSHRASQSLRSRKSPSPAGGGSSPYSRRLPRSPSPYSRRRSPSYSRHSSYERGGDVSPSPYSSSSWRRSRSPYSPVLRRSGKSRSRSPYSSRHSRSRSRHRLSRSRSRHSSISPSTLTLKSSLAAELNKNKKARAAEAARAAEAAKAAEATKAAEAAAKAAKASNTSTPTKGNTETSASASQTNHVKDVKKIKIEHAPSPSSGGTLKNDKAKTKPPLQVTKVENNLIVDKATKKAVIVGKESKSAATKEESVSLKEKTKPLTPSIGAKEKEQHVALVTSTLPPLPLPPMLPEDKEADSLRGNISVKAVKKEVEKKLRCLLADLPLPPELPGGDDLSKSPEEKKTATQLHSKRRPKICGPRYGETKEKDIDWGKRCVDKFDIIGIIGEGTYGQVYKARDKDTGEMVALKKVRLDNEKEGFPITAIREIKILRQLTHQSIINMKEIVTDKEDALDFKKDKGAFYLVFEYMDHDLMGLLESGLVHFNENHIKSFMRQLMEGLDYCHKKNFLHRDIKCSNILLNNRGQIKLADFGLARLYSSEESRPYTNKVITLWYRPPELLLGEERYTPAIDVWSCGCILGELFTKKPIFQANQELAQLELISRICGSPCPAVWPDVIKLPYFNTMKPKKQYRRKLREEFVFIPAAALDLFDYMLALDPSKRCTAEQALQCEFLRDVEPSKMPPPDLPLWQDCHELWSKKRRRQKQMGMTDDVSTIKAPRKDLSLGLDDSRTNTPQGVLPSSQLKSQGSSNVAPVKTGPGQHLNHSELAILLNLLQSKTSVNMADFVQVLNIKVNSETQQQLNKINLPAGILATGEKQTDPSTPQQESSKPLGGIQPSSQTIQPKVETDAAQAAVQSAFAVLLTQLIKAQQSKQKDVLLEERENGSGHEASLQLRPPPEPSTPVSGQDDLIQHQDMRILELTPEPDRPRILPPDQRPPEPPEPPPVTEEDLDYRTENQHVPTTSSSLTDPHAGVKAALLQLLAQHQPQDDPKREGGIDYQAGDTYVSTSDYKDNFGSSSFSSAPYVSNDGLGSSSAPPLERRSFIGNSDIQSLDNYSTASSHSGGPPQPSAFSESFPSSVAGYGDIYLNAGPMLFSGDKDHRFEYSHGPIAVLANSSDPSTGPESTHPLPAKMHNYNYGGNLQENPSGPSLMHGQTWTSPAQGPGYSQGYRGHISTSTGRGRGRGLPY
# [10] = molecular target: Dual specificity mitogen-activated protein kinase kinase 1 (Homo sapiens, UniProt Q02750); test: Selectivity interaction (ActivX KiNativ screen (kinase selectivity in THP-1 cell lysates)) EUB0000639a MAP2K1; type: subcellular; settings: lysate, at 0.01 µM
# Sequence of Dual specificity mitogen-activated protein kinase kinase 1 (Q02750 whole entry): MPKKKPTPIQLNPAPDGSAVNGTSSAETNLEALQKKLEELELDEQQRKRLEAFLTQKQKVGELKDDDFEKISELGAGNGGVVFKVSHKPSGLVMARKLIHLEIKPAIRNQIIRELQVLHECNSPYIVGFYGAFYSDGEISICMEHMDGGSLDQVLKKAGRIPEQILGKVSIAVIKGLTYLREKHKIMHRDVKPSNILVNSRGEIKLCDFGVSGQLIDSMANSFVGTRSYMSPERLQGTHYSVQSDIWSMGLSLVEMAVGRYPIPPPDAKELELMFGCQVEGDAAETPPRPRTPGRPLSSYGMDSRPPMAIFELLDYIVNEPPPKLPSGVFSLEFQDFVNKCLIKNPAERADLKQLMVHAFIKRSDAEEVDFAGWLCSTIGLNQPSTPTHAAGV
# [11] = molecular target: Rho-associated protein kinase 2 (Homo sapiens, UniProt O75116); test: Selectivity interaction (KinomeScan (DiscoverX)) EUB0000655a ROCK2; settings: at 10 µM
# [12] = molecular target: T2, Ephrin type-B receptor 1 (Homo sapiens) (UniProt P54762); settings: at 10 µM
# T2 sequence (whole entry): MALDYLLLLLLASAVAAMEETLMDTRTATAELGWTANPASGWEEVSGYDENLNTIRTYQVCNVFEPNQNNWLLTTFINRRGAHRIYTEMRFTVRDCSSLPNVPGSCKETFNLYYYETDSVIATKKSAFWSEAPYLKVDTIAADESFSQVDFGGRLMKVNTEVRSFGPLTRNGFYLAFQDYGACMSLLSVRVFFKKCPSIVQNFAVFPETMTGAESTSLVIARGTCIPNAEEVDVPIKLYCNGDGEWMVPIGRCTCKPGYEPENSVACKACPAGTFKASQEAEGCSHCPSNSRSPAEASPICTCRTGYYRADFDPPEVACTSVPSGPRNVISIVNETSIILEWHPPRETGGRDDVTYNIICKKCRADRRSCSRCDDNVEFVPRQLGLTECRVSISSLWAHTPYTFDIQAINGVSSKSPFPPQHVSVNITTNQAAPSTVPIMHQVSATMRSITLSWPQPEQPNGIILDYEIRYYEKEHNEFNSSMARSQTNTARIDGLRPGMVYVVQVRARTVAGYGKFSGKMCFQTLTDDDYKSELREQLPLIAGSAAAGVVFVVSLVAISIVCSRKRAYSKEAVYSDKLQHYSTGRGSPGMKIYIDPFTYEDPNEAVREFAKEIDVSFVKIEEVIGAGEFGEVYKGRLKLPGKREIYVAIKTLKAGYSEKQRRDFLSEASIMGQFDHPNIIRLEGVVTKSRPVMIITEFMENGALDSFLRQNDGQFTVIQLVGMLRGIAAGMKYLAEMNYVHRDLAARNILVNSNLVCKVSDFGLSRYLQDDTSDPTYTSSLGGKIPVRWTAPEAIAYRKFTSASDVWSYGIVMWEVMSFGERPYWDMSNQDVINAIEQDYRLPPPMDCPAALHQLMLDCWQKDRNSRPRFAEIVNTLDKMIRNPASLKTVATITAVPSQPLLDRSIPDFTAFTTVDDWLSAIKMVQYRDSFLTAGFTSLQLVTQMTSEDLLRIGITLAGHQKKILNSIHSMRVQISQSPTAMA
# Sequence of Protein kinase C eta type (Homo sapiens) (P24723 whole entry): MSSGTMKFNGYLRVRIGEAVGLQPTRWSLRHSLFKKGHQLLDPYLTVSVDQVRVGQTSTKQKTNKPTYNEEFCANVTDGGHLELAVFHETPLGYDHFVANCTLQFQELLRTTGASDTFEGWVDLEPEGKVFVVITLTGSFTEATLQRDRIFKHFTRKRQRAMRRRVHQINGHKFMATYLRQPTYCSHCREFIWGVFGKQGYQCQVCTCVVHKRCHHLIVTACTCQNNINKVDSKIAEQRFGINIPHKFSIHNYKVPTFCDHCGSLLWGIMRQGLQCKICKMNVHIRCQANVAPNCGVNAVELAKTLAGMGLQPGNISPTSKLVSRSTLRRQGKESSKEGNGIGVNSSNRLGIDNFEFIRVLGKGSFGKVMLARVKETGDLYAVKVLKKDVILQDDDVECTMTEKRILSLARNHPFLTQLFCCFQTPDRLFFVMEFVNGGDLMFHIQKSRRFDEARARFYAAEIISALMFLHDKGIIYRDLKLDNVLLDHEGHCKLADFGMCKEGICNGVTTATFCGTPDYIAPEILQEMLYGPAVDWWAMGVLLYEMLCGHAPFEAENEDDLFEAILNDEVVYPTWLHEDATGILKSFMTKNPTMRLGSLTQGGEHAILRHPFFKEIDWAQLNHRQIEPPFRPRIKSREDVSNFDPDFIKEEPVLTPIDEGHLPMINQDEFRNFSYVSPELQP
smiles,measurement,setting,value
CN(C(=O)c1cnn2cccnc12)c1cc2c(cc1N1CCOCC1)C(=O)N(C[C@@H](F)C(C)(C)O)C2,dTM,[1],-0.1 K
O=C(NOC[C@H](O)CO)c1ccc(F)c(F)c1Nc1ccc(I)cc1F,% of control,[2],100%
Cc1cc(CN)cc(C)c1-c1ncn(C)c1-c1cncn1C,% activity,[3]; at 1 µM,> 90%
same,% activity,[3]; at 10 µM,> 80%
Cc1cc([C@@H](C)Nc2ccccc2C(=O)O)c2nc(N3CCOCC3)cc(=O)n2c1 [AZD-6482],% of control,[4],99%
CN(C)CC#Cc1ccc2[nH]c3c(c2c1)-c1nc(N)ncc1CCC3,IC50,[5],270 nM
CCc1cc(Nc2nccc(-c3c(-c4ccc(OC)c(C(=O)Nc5c(F)cccc5F)c4)nc4ccccn34)n2)c(OC)cc1N1CCC(N2CCN(S(C)(=O)=O)CC2)CC1,% of inhibition,[6],65%
CN1Cc2nccc(-c3cn(C)nc3-c3ccc(F)cc3)c2C1=O,% of inhibition,[7],65%
O[C@H]1CC[C@H](Nc2ncc3nc(Nc4c(F)cc(F)cc4F)n([C@H]4CCOC4)c3n2)CC1,% of control,[8],100%
same,% of control,[9],90%
CC[C@@H]1[C@H](F)C(=O)N[C@@H]1COc1nccc2cc(C(N)=O)c(OC)cc12 [ZIMLOVISERTIB],% of inhibition,[10],-1.6%
CN(C)CCOc1ccc(-c2nc(-c3ccncc3)c(-c3ccc4c(c3)CC/C4=N\O)[nH]2)cc1,% of control,[11],47%
CCN(CC)CCCCNc1ncc2cc(-c3cc(OC)cc(OC)c3)c(NC(=O)NC(C)(C)C)nc2n1,% of control,[12],100%
